Assays:
human KOP receptor [1] = biological target: T1, human KOP receptor (Homo sapiens, UniProt P41145); experiment: Competition binding assay, CHO-hKOP cell membranes, [3H]U69,593; conditions: for Ki: CHO-hKOP membranes, mean ± SEM, read-out: receptor binding affinity Ki KOP; for selectivity DOP/KOP: Ki ratio DOP/KOP; for selectivity MOP/KOP: Ki ratio MOP/KOP
T1 construct: expressed in transfected cells; host or cells: CHO-hKOP cells (gift of Dr. Lawrence Toll, SRI International)
Experimental: (§1) CHO cells stably expressing recombinant human KOP, MOP, or DOP receptors (CHO-hKOP, CHO-hMOP, and CHO-hDOP cell lines) were kindly provided by Dr. Lawrence Toll (SRI International, Menlo Park, CA). The CHO-hKOP cell line was maintained in Dulbecco’s Minimal Essential Medium (DMEM) supplemented with fetal bovine serum (FBS, 10%), penicillin/streptomycin (0.1%), L-glutamine (2 mM), and geneticin (400 μg/mL). The CHO-hMOP and CHO-hDOP cell lines were maintained in DMEM/Ham’s F-12 medium supplemented with FBS (10%), penicillin/streptomycin (0.1%), L-glutamine (2 mM), and geneticin (400 μg/mL). Cell cultures were maintained at 37 °C in 5% CO2 humidified air.
(§2) Nonspecific binding was determined using 1–10 μM of the unlabeled counterpart of each radioligand. Assays were performed in 50 mM Tris-HCl buffer (pH 7.4) in a final volume of 1 mL. Cell membranes (15–20 μg) were incubated with the appropriate radioligand and various concentrations of test compound for 60 min at 25 °C. After incubation, reactions were terminated by rapid filtration through Whatman glass fiber filters. Filters were washed three times with 5 mL of ice-cold 50 mM Tris-HCl buffer (pH 7.4) using a Brandel M24R cell harvester (Gaithersburg, MD). Radioactivity retained on the filters was counted by liquid scintillation counting using a Beckman Coulter LS6500 (Beckman Coulter Inc., Fullerton, CA). All binding experiments were performed in duplicate and repeated at least three times. The inhibitory constant Ki values (in nM) were calculated from the competition binding curves by nonlinear regression analysis and the Cheng–Prusoff equation.[16]

human MOP receptor = biological target: T2, human MOP receptor (Homo sapiens, UniProt P35372); experiment: Competition binding assay, CHO-hMOP cell membranes, [3H]DAMGO; conditions: mean ± SEM, read-out: receptor binding affinity Ki MOP
T2 construct: expressed in transfected cells; host or cells: CHO-hMOP cells (gift of Dr. Lawrence Toll, SRI International)
Experimental: as §1
as §2, with “. Nonspecific” for “Nonspecific”

human DOP receptor = biological target: T3, human DOP receptor (Homo sapiens, UniProt P41143); experiment: Competition binding assay, CHO-hDOP cell membranes, [3H]diprenorphine; conditions: mean ± SEM, read-out: receptor binding affinity Ki DOP
T3 construct: expressed in transfected cells; host or cells: CHO-hDOP cells (gift of Dr. Lawrence Toll, SRI International)
Experimental: as §1
as §2, with “. Nonspecific” for “Nonspecific”

human KOP receptor [2] = biological target: T1, human KOP receptor; experiment: [35S]GTPγS binding assay using CHO-hKOP cell membranes; type: biochemical; conditions: for EC50: CHO-hKOP membranes, mean ± SEM; for Emax: read-out: [35S]GTPγS KOP % stim
Experimental: The binding of [^35S]GTPγS to membranes from CHO cells stably expressing human KOP receptors (CHO-hKOP cells) was conducted according to the published procedures.[9a],[9b] CHO-hKOP cell membranes were prepared in buffer A (20 mM HEPES, 10 mM MgCl2, and 100 mM NaCl, pH 7.4). Cell membranes (8–15 μg) in buffer A were incubated with 0.05 nM [^35S]GTPγS, 10 μM GDP, and various concentrations of test compound in a final volume of 1 mL for 60 min at 25 °C. Nonspecific binding was determined using 10 μM GTPγS, and the basal binding was determined in the absence of test ligand. Samples are filtered over glass fiber filters and counted as described for binding assays. […] To determine the KOP antagonist activity, a concentration–response curve for U69,593 was obtained by assessing the [^35S]GTPγS binding to CHO-hKOP cell membranes in the presence or absence of test compound, as previously described.[9b] For each compound, the Schild analysis was conducted, utilizing a full agonist–dose response curve in the presence of at least two concentrations of the antagonist. The equilibrium dissociation constant (Ke) was calculated from the equation Ke = [a]/(DR – 1), where “a” is the concentration of antagonist and DR the virtual shift of the agonist concentration–response curve to the right in the presence of a given concentration of antagonist. All experiments were performed in duplicate and repeated at least three times.

[3] = system: acetic acid-induced writhing in CD1 mice; experiment: Acetic acid-induced writhing assay in mice after sc administration; type: in vivo; conditions: for ED50: Mus musculus, 0.5 h, CD1 mice, inhibition of writhing at 30 min after drug administration, read-out: antinociceptive ED50 (95% CI)
Experimental: Male CD1 mice (30–35 g, 6–8 weeks old) were obtained from the Center of Biomodels and Experimental Medicine (CBEM) (Innsbruck, Austria) or Charles River (Sulzfeld, Germany). Mice were group-housed in a temperature controlled room with a 12 h light/dark cycle and with free access to food and water. All animal studies were conducted in accordance with ethical guidelines and animal welfare standards according to Austrian regulations for animal research and were approved by the Committee of Animal Care of the Austrian Federal Ministry of Science and Research. Solutions of test compounds were prepared as 1% DMSO solutions in sterile physiological 0.9% saline and further diluted to working doses in saline solution. Test compounds or vehicle (saline) were administered by sc route in a volume of 10 μL/1 g of body weight. All doses are expressed in terms of salts. Separate groups of mice received the respective dose of compound, and individual mice were only used once for behavioral testing. Each experimental group included at least five animals.
Writhing was induced in male CD1 mice by intraperitoneal (ip) injection of a 0.6% acetic acid aqueous solution as described previously.[9a] Groups of mice were administered sc different doses of test compound or saline (control), and then 5 min prior to testing (25 min after drug or saline) each animal received an ip injection of acetic acid solution. Each mouse was placed in individual transparent Plexiglas chambers, and the number of writhes was counted during a 10 min observation period. […] For the antagonism studies, nor-BNI (20 mg/kg) was sc administered 24 h before 2 (5 mg/kg) and 17 (10 mg/kg) was sc administered 15 min before U50,488 (2 mg/kg).

CD1 mice = conditions: mouse, in vivo, sc, 7.5 mg/kg
[4] = percentage stimulation relative to the KOP full agonist U69,593

SMILES | Ki (human KOP receptor [1]) [nM] | Ki (human MOP receptor) [nM] | Ki (human DOP receptor) [nM] | EC50 (human KOP receptor [2]) [nM] | Emax (human KOP receptor [2]; [4]) [%] | ED50 ([3]; sc) [mg/kg] | effect on rotarod latencies (motor behavior) (CD1 mice) | selectivity DOP/KOP (human KOP receptor [1]) | selectivity MOP/KOP (human KOP receptor [1]) | increase in agonist potency vs compound 1 (human KOP receptor [2]; EC50 comparison) [fold] | [35S]GTPγS KOP % stim (human KOP receptor [2]; [4]) [%] | antagonism by nor-BNI of the antinociceptive effect ([3]; nor-BNI 20 mg/kg sc 24 h before agonist (2: 5 mg/kg; 3: 1 mg/kg; 4: […] sc)) | reduction in antinociceptive potency vs compound 3 ([3]; sc, ED50 comparison) | increase in KOP affinity vs compound 8 (human KOP receptor [1]; Ki comparison) | increase in selectivity KOP vs DOP compared to compound 14 (human KOP receptor [1]; selectivity ratio comparison) [fold] | increase in selectivity KOP vs MOP compared to compound 14 (human KOP receptor [1]; selectivity ratio comparison) [fold] | Kd (human KOP receptor [2]; antagonist Ke at the KOP receptor against U69,593) [nM] | functional activity profile at the KOP receptor (human KOP receptor [2]; in vitro, [35S]GTPγS) | agonist activity in vivo (effect on pain behavior alone) ([3]; 10 mg/kg sc, compared to control mice) | antagonism of U50,488-induced antinociception ([3]; 17 10 mg/kg sc 15 min before U50,488 2 mg/kg sc)
Cl.Oc1cccc(CCN(CCc2ccccc2)CC2CCCCC2)c1F [Compound 19, 3-[2-[(Cyclohexylmethyl)(phenethyl)amino]ethyl]-2-fluorophenol Hydrochloride] | 0.04 ± 0.006 | 851 ± 292 | > 10000 | 2.77 ± 0.29 | ≥ 80 | 1.33 | no significant alterations in rotarod latencies |  |  |  |  |  |  |  |  |  |  |  |  | 
Cl.Oc1cccc(CCN(CCc2ccccc2)CC2CCCCC2)c1 [Compound 4, 3-[2-[(Cyclohexylmethyl)(phenethyl)amino]ethyl]phenol Hydrochloride] | 0.061 ± 0.027 | 537 ± 172 | 2140 ± 346 | 0.23 ± 0.08 | 61.9 | 1.01 | no significant alterations in rotarod latencies | 35066 | 8803 | 16 | 61.9 ± 8.1 | antagonized by the KOP antagonist nor-BNI | about 2 fold |  |  |  |  |  |  | 
Cl.Oc1cccc(CCN(CCc2ccccc2)CC2CCC2)c1F [Compound 18, 3-[2-[(Cyclobutylmethyl)(phenethyl)amino]ethyl]-2-fluorophenol Hydrochloride] | 0.072 ± 0.027 | 398 ± 57 | > 10000 | 6.9 ± 3.35 | 71.4 | 2.64 | no significant alterations in rotarod latencies | >138000 | 5529 |  |  |  |  |  |  |  |  |  |  | 
Cl.Oc1cccc(CCN(CCc2cccc(O)c2F)CC2CCC2)c1 [Compound 20, 3-[2-[(Cyclobutylmethyl)(3-hydroxyphenethyl)amino]ethyl]-2-fluorophenol Hydrochloride] | 0.12 ± 0.01 | 557 ± 198 | > 10000 | 1.49 ± 0.04 | 57.5 ± 4.4 | 2.25 |  | >83000 | 4642 |  |  |  |  | about 3 fold |  |  |  |  |  | 
Cl.Oc1ccc(CCN(CCc2cccc(O)c2)CC2CCC2)cc1 [Compound 14, 3-[2-[(Cyclobutylmethyl)(4-hydroxyphenethyl)amino]ethyl]phenol Hydrochloride] | 3.43 ± 0.75 | 16.1 ± 4.7 | 428 ± 93 | 22.2 ± 3.6 | 76.4 ± 1.1 | 1.73 |  | 125 | 5 |  |  |  |  |  |  |  |  |  |  | 
Cl.Oc1ccc(CCN(CCc2cccc(O)c2F)CC2CCC2)cc1 [Compound 21, 3-[2-[(Cyclobutylmethyl)(4-hydroxyphenethyl)amino]ethyl]-2-fluorophenol Hydrochloride] | 3.37 ± 1.54 | 523 ± 33 | 1310 ± 281 | 36.7 ± 14 | 69.1 ± 1.9 | 2.14 |  | 389 | 155 |  |  |  |  |  | 3 | 31 |  |  |  | 
Cl.Oc1ccc(CCN(CCc2cccc(O)c2)CC2CC2)cc1 [Compound 17, 3-[2-[(Cyclopropylmethyl)(4-hydroxyphenethyl)amino]ethyl]phenol Hydrochloride] | 3.56 ± 0.94 | 460 ± 127 | > 10000 |  |  |  |  | >2800 | 129 |  |  |  |  |  |  |  | 24.3 ± 1.5 | KOP antagonism | did not affect pain behavior | complete reversal of U50,488-induced analgesia
Cl.Oc1cccc(CCN(CCc2ccccc2)Cc2ccccc2)c1 [Compound 5, 3-[2-[(Benzyl)(phenethyl)amino]ethyl]phenol Hydrochloride] | 0.71 ± 0.25 | 463 ± 95 | 1860 ± 501 | 4.65 ± 1.63 | ≥ 80 | 1.21 |  | 2623 | 652 |  |  |  |  |  |  |  |  |  |  | 
